The text below walks through data of patent US6494824B1, “Medical, radiotherapy source vial” (priority 1998, dated 2002).

The structures appear in SMILES notation.

Data set [1] is described as follows: Radiation exposure measured during radiogas balloon treatment. In kind it is in vivo, porcine. The following applies: 250-300 mCi in balloon. The protocol: Prior art systems can falter with regards to dose homogeneity, optimal efficacy, radiation safety restrictions, patient handling, and radionuclide availability. The present medical radiation treatment system was developed and tested for irradiation with historically safe xenon-133 inert radiogas. In order to determine the efficacy of xenon-133 radiogas to inhibit neointimal formation and subsequent luminal restenosis, angioplasty balloon injury was performed in the coronary arteries of 17 juvenile porcine subjects. […] This was performed using multiple trials with Cook GRII® balloon catheters of various coronary sizes with different quantities of xenon-133 (millicuries), exposure time (min.), and volumes (cc). Customized solid water phantoms, layered Gafchromic film, laser/light densitometry readings, and referenced dosimetry graphics were standardly applied to obtain these referenced measurements.
Localization of the radiogas filled balloon was verified by Gamma Camera and fluoroscopic imaging. The radiation exposure measured 100 mR/h at the chest wall and 5 mR/h immediately bedside. Two weeks following treatment, the animals were harvested, the arteries perfusion fixed, stained, and morphometrically analyzed. […]

Data set [2] concerns balloon-injured coronary arteries (neointimal formation). The experiment in a line: Angioplasty balloon injury of porcine coronary arteries, xenon-133 radiogas balloon irradiation, morphometry after two weeks. The data set is classed as in vivo. To be noted: for IA (intimal area): two weeks after treatment, control 1.04 ± 0.20; for IA/FL (intimal area corrected for medical fracture length): control 0.55 ± 0.06. The protocol:
Prior art systems can falter with regards to dose homogeneity, optimal efficacy, radiation safety restrictions, patient handling, and radionuclide availability. The present medical radiation treatment system was developed and tested for irradiation with historically safe xenon-133 inert radiogas. In order to determine the efficacy of xenon-133 radiogas to inhibit neointimal formation and subsequent luminal restenosis, angioplasty balloon injury was performed in the coronary arteries of 17 juvenile porcine subjects. Following balloon injury of the coronary arteries of these porcine subjects, 3.0 to 3.5 mm balloons of 30 to 40 mm lengths were positioned to cover and overlap the injured vessel segment. A negative pressure was obtained in the radiocatheter prior to placement. Xenon-133 activity of 250-300 mCi (in 2.0-2.5 cc's) was injected to fill the balloon segment, uniformly abutting the lumen wall. A dose of either 15 Gy or 30 Gy was prescribed and delivered to a target tissue depth of 0.25 mm from the expanded balloon surface. The dwell time during inflation was 2±0.5 minutes (avg.). Prior in vitro dosimetry trials were performed to obtain reference micro-dosimetry results. Summary data analysis including reference tables and graphics, were performed and applied for delivery ranges as described above. This was performed using multiple trials with Cook GRII® balloon catheters of various coronary sizes with different quantities of xenon-133 (millicuries), exposure time (min.), and volumes (cc). Customized solid water phantoms, layered Gafchromic film, laser/light densitometry readings, and referenced dosimetry graphics were standardly applied to obtain these referenced measurements.
Localization of the radiogas filled balloon was verified by Gamma Camera and fluoroscopic imaging. The radiation exposure measured 100 mR/h at the chest wall and 5 mR/h immediately bedside. Two weeks following treatment, the animals were harvested, the arteries perfusion fixed, stained, and morphometrically analyzed. The intimal area (IA) was compared between the irradiated and control arteries.

Consider `[133Xe]` [Xe-133, xenon-133], for which the radiation exposure in data set [1] (at the chest wall) was 100 mR/h; in data set [1] (immediately bedside) it was 5 mR/h. For the same compound, the “% absolute ratio reduction (IA/FL vs control)” value in data set [2] (15 Gy) came to 71%; in data set [2] (30 Gy), 45%. For the same compound, the “IA (intimal area)” value in data set [2] (15 Gy at 0.25 mm tissue depth, n = 9) stood at 0.34 ± 0.17 mm^2; in data set [2] (30 Gy at 0.25 mm tissue depth, n = 8) it was 0.38 ± 0.18 mm^2. Moreover, the results for the “share of group showing IA (mm^2) of ≦0.06” value in data set [2] (15 Gy group) and in data set [2] (30 Gy group) were 66% and 44%, respectively. Further, the “IA/FL (intimal area corrected for medical fracture length)” value in data set [2] (15 Gy, n = 9) is reported as 0.16 ± 0.08; in data set [2] (30 Gy, n = 8), 0.32 ± 0.12. Further, the thrombosis entry in data set [2] (30 Gy group) is listed as “slight trend toward increased thrombosis”. Also, the “neointimal formation (conclusion from harvested vessels)” value in data set [2] (porcine model, radiogas balloon catheter) is “effective in markedly reducing neointimal formation”.
